Results published in patent publication US9233933B2, “4,4-disubstituted-1,4-dihydropyrimidines and the use thereof as medicaments for the treatment of hepatitis B” (priority 2012, dated 2016).
Where two headings read alike, the source gives them in different places.

Assays:
HBV [1] = experiment: anti-HBV activity in stable transfected HepG2.2.15 cell line, HBV DNA from secreted virions by realtime PCR; assay type: cell-based, Hepatitis B virus; conditions: HepG2.2.15 cells, 6 days of treatment, secreted virion HBV DNA, read-out: HBV-HepG2 2.15 EC50
HepG2 cells [2] = experiment: Cytotoxicity in HepG2 cells using CellTiter-Blue, same incubation period as HepG2.2.15 assay; assay type: cell-based; conditions: 6 days
Procedure: (§1) Cytotoxicity of the compounds was tested in HepG2 cells using CellTiter-Blue, with the same incubation period and dose range as in the HepG2.2.15 assay.

HBV [3] = experiment: anti HBV activity in HepG2.117 cell line (Tet-off, inducibly HBV producing), intracellular HBV DNA by realtime PCR; assay type: cell-based, Hepatitis B virus; conditions: HepG2.117 cells, 3 days of treatment, intracellular HBV DNA, read-out: HepG2 117 EC50
HepG2 cells [4] = experiment: Cytotoxicity in HepG2 cells incubated 4 days, Resazurin assay; conditions: read-out: HepG2 4 days CC50
HepG2 cells [5] = conditions: human, 4 days
[6] = Cytotoxicity in HepG2 cells using CellTiter-Blue, same incubation period as HepG2.2.15 assay; assay type: cell-based; conditions: human, HepG2 6 days CC50
Procedure: as §1

in vitro = conditions: human, HepG2 4 days CC50
[7] = HepG2 cells, CellTiter-Blue, read-out: HepG2 6 days CC50
[8] = Hepatitis B virus, HepG2.2.15, 144 h
[9] = Hepatitis B virus, HepG2.117, 72 h

| Structure (SMILES) | EC50 (HBV [1]) | EC50 (HBV [3]) | CC50 (HepG2 cells [4]) | EC50 (HBV [1]; [8]) | EC50 (HBV [3]; [9]) | CC50 at 6 days [6] | CC50 at 4 days (in vitro) | further results |
| --- | --- | --- | --- | --- | --- | --- | --- | --- |
| CCOC(=O)C1=C(CN2CCOCC2)NC(c2ccccn2)=NC1(C)c1ccc(F)cc1 (racemic) [Compound 4b] | 0.643 µM | 0.76 µM | > 50 µM | – | – | – | – | CC50 (HepG2 cells [2]; [7]): 92.4 µM |
| COC(=O)C1=C(C)NC(c2ncc(F)cc2F)=NC1(C)c1ccc(F)c(F)c1 (stereo not shown) [132b •MsOH] | – | – | > 25 µM | 0.694 µM | 0.803 µM | – | – | – |
| COC(=O)C1=C(C)NC(c2ncc(F)cc2F)=NC1(c1ccc(F)c(F)c1)C(F)F (single isomer, unassigned) [Compound 151b] | 4.25 µM | 3.68 µM | > 25 µM | – | – | – | – | – |
| COC(=O)C1=C(CN2CCOCC2)NC(c2ccccn2)=NC12CCc1c(F)cccc12 (single isomer, unassigned) [Compound 66b] | 35.1 µM | 48.9 µM | – | – | – | – | – | CC50 (HepG2 cells [2]; human): > 100 µM; CC50 (HepG2 cells [5]): > 100 µM |
| COC(=O)C1=C(C)NC(c2ncccn2)=NC1(C)c1ccc(F)c(F)c1 (single isomer, unassigned) [Compound 159b] | > 100 µM | > 25 µM | > 25 µM | – | – | – | – | – |
| COC(=O)C1=C(C#N)NC(c2ncc(F)cc2F)=NC1(C)c1ccc(F)c(F)c1 (single isomer, unassigned) [Compound 163b] | > 100 µM | > 25 µM | > 25 µM | – | – | – | – | – |
| CCOC(=O)C1=C(CN2CCOCC2)NC(c2ccccn2)=NC1(C)c1ccc(F)cc1 (racemic) [Compound 4a] | > 100 µM | – | – | – | – | – | – | CC50 (HepG2 cells [2]; [7]): 92 µM |
| COC(=O)C1=C(C)NC(SC)=NC1(C)c1ccc(F)c(F)c1 (single isomer, unassigned) [Compound 160b] | 0.451 µM | 10.5 µM | > 25 µM | – | – | – | – | – |
| CCOC(=O)C1=C(CN2CCOCC2)NC(c2ccccn2)=NC1(c1ccc(F)cc1)C(F)(F)F (racemic) [Compound 34a] | > 100 µM | – | – | – | – | – | – | CC50 (HepG2 cells [2]; [7]): 30.9 µM |
| N#CC1=C(CN2CCOCC2)NC(c2ccccn2)=NC12CCCc1cc(F)ccc12 (single isomer, unassigned) [Compound 60b] | 2.26 µM | 1.28 µM | > 100 µM | – | – | – | – | CC50 (HepG2 cells [2]; [7]): > 100 µM |
| COC(=O)C1=C(C)NC(c2ncc(F)cc2F)=NC12c1ccccc1OC2(F)F (single isomer, unassigned) [Compound 106b] | 29.4 µM | > 25 µM | – | – | – | – | – | CC50 (HepG2 cells [2]; human): > 100 µM; CC50 (HepG2 cells [5]): > 25 µM |
| COC(=O)C1=C(C)NC(c2ncccc2F)=NC1(C)c1ccc(F)c(F)c1 (single isomer, unassigned) [Compound 158b] | – | > 25 µM | > 25 µM | > 100 µM | – | – | – | – |
| CCOC(=O)C1=C(CN2CCOCC2)NC(c2ccccn2)=NC1(c1ccc(F)cc1)C(F)(F)F (racemic) [Compound 34b] | 8.23 µM | – | – | – | – | – | – | CC50 (HepG2 cells [2]; [7]): 41.6 µM |
| COC(=O)C1=C(CN2CCOCC2)NC(c2ccccn2)=NC12CCc1ccc(F)cc12 (single isomer, unassigned) [Compound 96b] | 30.3 µM | 18.7 µM | – | – | – | – | – | CC50 (HepG2 cells [2]; human): > 100 µM; CC50 (HepG2 cells [5]): > 100 µM |
| COC(=O)C1=C(C)NC(c2nccs2)=NC12C(F)=C(F)c1cc(F)ccc12 (single isomer, unassigned) [Compound 166b] | 0.197 µM | 15.5 µM | – | – | – | – | – | CC50 (HepG2 cells [5]): > 25 µM |
| COC(=O)C1=C(CN2CCOCC2)NC(c2ccccn2)=NC12CCOc1ccccc12 (stereo not shown) [Compound 86] | – | – | – | 8.64 µM | 5.49 µM | > 100 µM | > 100 µM | – |
| COC(=O)C1=C(C)NC(c2nccs2)=NC12C(F)=Cc1c2ccc(F)c1F (single isomer, unassigned) [Compound 174b] | – | > 25 µM | – | – | – | – | – | CC50 (HepG2 cells [5]): > 25 µM |
| COC(=O)C1=C(CN2CCOCC2)NC(c2ncc(F)cc2F)=NC12CC(C)(C)c1ccccc12 (stereo not shown) [Compound 93] | – | – | – | 53.4 µM | 81.2 µM | 41.5 µM | > 100 µM | – |
| COC(=O)C1=C(CN2CCOCC2)NC(c2ccccn2)=NC12CCCc1cc(F)ccc12 (stereo not shown) [Compound 74] | – | – | – | 2.06 µM | 1.33 µM | 78.3 µM | > 100 µM | – |
| COC(=O)C1=C(CN2CCOCC2)NC(c2ccccn2)=NC12CCc1ccc(F)cc12 (single isomer, unassigned) [Compound 96a] | 0.65 µM | 0.3 µM | – | – | – | > 100 µM | > 100 µM | – |
| COC(=O)C1=C(C)NC(c2ncc(F)cc2F)=NC12CC(C)(C)c1ccccc12 (single isomer, unassigned) [Compound 134a] | 91.2 µM | – | – | – | > 50 µM | 53 µM | > 50 µM | – |
| COC(=O)C1=C(CN2CCOCC2)NC(c2ccccn2)=NC12c1ccc(F)cc1C(F)C2(F)F (single isomer, unassigned) [Compound 168B] | 5.73 µM | 1.49 µM | – | – | – | – | – | CC50 (HepG2 cells [5]): > 25 µM |
| COC(=O)C1=C(C)NC(c2ncc(F)cc2F)=NC12CC(C)(C)c1ccccc12 (single isomer, unassigned) [Compound 134b] | 41.9 µM | > 50 µM | – | – | – | – | – | CC50 (HepG2 cells [2]; human): 35.8 µM; CC50 (HepG2 cells [5]): > 50 µM |
| CCOC(=O)C1=C(CN2CCOCC2)NC(c2ccccn2)=NC1(c1ccc(F)cc1)C(F)(F)F (racemic) [Compound 34] | 16.2 µM | – | – | – | – | – | – | CC50 (HepG2 cells [2]; [7]): 20 µM |
| COC(=O)C1=C(CN2CCOCC2)NC(c2ccccn2)=NC12CCc1ccc(F)cc12 (stereo not shown) [Compound 96] | – | – | – | 0.954 µM | 0.94 µM | > 100 µM | 97 µM | – |
| COC(=O)C1=C(CN2CCOCC2)NC(c2ccccn2)=NC12CCc1c(F)cccc12 (racemic) [Compound 66] | – | – | – | 0.207 µM | 0.17 µM | 89.3 µM | > 25 µM | – |
| COC(=O)C1=C(CN2CCOCC2)NC(c2ccccn2)=NC12c1ccccc1CC2(F)F (stereo not shown) [Compound 110] | – | – | – | 10.7 µM | 6.14 µM | > 100 µM | > 50 µM | – |
| COC(=O)C1=C(C)NC(c2ncc(F)cc2F)=NC12CCc1c2ccc(F)c1F (stereo not shown) [Compound 100] | – | – | – | 0.546 µM | 0.506 µM | > 100 µM | > 100 µM | – |
| COC(=O)C1=C(C)NC(c2ncc(F)cc2F)=NC1(C)c1ccc(Cl)c(F)c1 (stereo not shown) [156 •MsOH] | 1.93 µM | 1.09 µM | > 25 µM | – | – | – | – | – |
